According to patent publication US5770595A, “Oxime substituted therapeutic compounds” (Cell Therapeutics, Inc., priority 1994, dated 1998):

Key:
[1] = test system: polymorphonuclear leukocytes; settings: in response to a stimulator of chemotaxis; U.S. Pat. No. 4,636,507; cited from earlier work
[2] = U.S. Pat. Nos. 4,515,795 and 4,576,947; cited from earlier work
[3] = test system: PBMC (peripheral blood mononuclear cells); assay: two-way mixed lymphocyte reaction; format: cell-based, human; settings: Example 28; protocol similar to Example 10
Text: Various in vitro assays can be used to measure effects of the inventive compounds to module immune activity and have antitumor activity using a variety of cellular types. For example, a mixed lymphocyte reaction (MLR) provides a valuable screening tool to determine biological activity of each inventive compound. In the MLR, PBMCs (peripheral blood mononuclear cells) are obtained by drawing whole blood from healthy volunteers in a heparinized container and diluted with an equal volume of hanks balanced salt solution (HBSS). This mixture is layered on a sucrose density gradient, such as a Ficoll-Hypaque® gradient (specific gravity 1.08), and centrifuged at 1000×g for 25 minutes at room temperature or cooler. PBMC are obtained from a band at a plasma-Ficoll interface, separated and washed at least twice in a saline solution, such as HBSS. Contaminating red cells are lysed, such as by ACK lysis for 10 min at 37° C., and the PBMCs are washed twice in HBSS. The pellet of purified PBMCs is resuspended in complete medium, such as RPMI 1640 plus 20% human inactivated serum. Proliferative response of PBMC to allogeneic stimulation is determined in a two-way MLR performed in a 96-well microtiter plate. Briefly, approximately 10^5 test purified PBMC cells in 200 μl complete medium are co-cultured with approximately 10^5 autologous (control culture) or allogeneic (stimulated culture) PBMC cells, wherein the allogeneic cells are from HLA disparate individuals. Varying doses of compounds (drug) are added at the time of addition of cells to the microtiter plate. The cultures are incubated for 6 days at 37° C. in a 5% CO2 atmosphere. At the conclusion of the incubation tritiated thymidine is added (for example, 1 μCi/well of 40 to 60 Ci/mmole) and proliferation determined by liquid scintillation. counting.
Example 10 illustrates a mixed lymphocyte reaction of inventive compounds nos. 1521 and 1522 (see above for chemical name and structure). […] Both compounds nos. […]

[4] = test system: murine thymocyte; assay: thymocyte proliferation stimulated by ConA and IL-2; format: cell-based, murine (female Balb/C mice); settings: ConA, IL-2 15 U/ml; FIG. 18 (IC50 curve)
Experimental: A thymocyte costimulator assay is conducted to evaluate the inventive compounds to inhibit activation and proliferation of thymocytes caused by stimulation with Con A and interleukin-1 (IL-1), or […]. Thymuses are obtained from mice (e.g., female Balb/C mice) and the thymuses are removed and dissociated into culture media (e.g., RPMI 1640 without serum supplementation). The dissociated thymus tissue and cell suspension is transferred to centrifuge tubes and allowed to settle, washed with HBSS and resuspended in serum-supplemented culture media (e.g., RPMI 1640 with 10% fetal calf serum). Any contaminating red cells are lysed, and viable cells are resuspended and counted. Thymocytes are plated (e.g., 96-well plates at a density of 2×10^5 cells/well) and a stimulating agent, such as Con A, IL-1 (e.g., IL-1α) or IL-2 is added to the well. The cells are incubated for 4 days at 37° C. On the fourth day, the cells are pulsed with tritiated thymidine and cell proliferation determined. […]
1522 on inhibition of thymocyte proliferation stimulated by ConA and interleukin-2 (IL-2) (20 ng/ml). Compound no. […]
Thymuses, obtained from normal, female Balb/C mice, were dissociated and plated into 96-well plates at a density of 2×10^5 cells/well. […] The amount of tritiated thymidine dye incorporated by the harvested cells was determined in a liquid scintillation counter. […]

[5] = test system: VCAM in HUVEC cells; assay: cell surface expression of VCAM in HUVEC; format: cell-based, human; settings: protocol similar to Example 20; FIG. 17
Experimental: Drug inhibitory activity can also be measured by determining levels of vascular cell adhesion molecule (VCAM) in stimulated cells. Early passage human umbilical vein endothelial cells (HUVEC) (obtained from commercial suppliers such as Cell Systems, Inc. or Clonetics) are cultured in media (e.g., Hepes buffered media, Cell Systems) containing 10% fetal bovine serum, and supplemented with a stimulating agent, such as fibroblast growth factor (acidic FGF, Cell Systems, Inc.) or TNF. The cells are plated into wells of a microtiter plate (e.g., 5×10^4 per well) and allowed to incubate at 37° C. for 72 hrs. The resting cells are removed (e.g., 20-30 min treatment with 0.4% EDTA), washed in media (e.g., phosphate buffered saline plus 0.1% bovine serum albumin with 0.01% sodium azide) and labeled on ice with a monoclonal antibody ("first antibody") recognizing human VCAM (e.g., 1 μg of a murine monoclonal antibody recognizing human VCAM, Genzyme). After 60 min on ice, the cells are washed (preferably twice) with cold wash media and incubated with an antibody that recognizes the first antibody (e.g., 1 μg of goat anti-mouse IgG conjugated with phycoerythrin, CalTag, Inc.). After 30 min on ice, the cells are washed twice and analyzed on a flow cytometer (Coulter Elite®) at appropriate emission and excitation wavelengths (e.g., for phycoerytlrin use excitation at 488 nm and emission at 525 nm).
The cells were stimulated with human TNF-α (20 ng/ml) for 20 hours and then stained for immunofluorescence using a monoclonal antibody recognizing VCAM, followed by a goat anti-mouse antibody conjugated to phycoerythrin. The cells were analyzed for antibody binding using flow cytometry. […] 1521 and 1522 at the indicated drug concentrations.
This example was used to investigate inhibition of vascular cell adhesion molecule (VCAM) expression on HUVEC by inventive compound no. 2525. VCAM expression by endothelial cells is an early event in atherogenesis and multiple sclerosis, among other various autoimmune diseases. FIG. 17, a plot of percent surface expression versus concentration of compound no.

[6] = test system: THP-1 cells / IL-1β-activated HUVEC; assay: THP-1 cell adhesion to IL-1β-activated HUVEC; format: cell-based, human; settings: IL-1β 10 ng/ml, 8 hours; between 1.0 and 10 μM
Experimental: This example illustrates inhibitive activity of inventive compound no. 2525 on THP-1 cell adhesion to IL-1β-activated HUVEC. In an investigative assay, HUVEC were stimulated with IL-1β (10 ng/ml), both in the absence and presence of varying concentrations of inventive compound for 8 hours in a 96-well microtiter plate. In the wellplate, human monocytic leukemia cell line THP-1 cells were added at 50,000 cells per well. The THP-1 cells were pre-incubated with BCECF, a fluorescence dye that can be use to measure cell number using a fluorescence plate reader. After 10 minutes at 37° C., the microtiter plate was inverted and spun at 900 rpm. The remaining adhering THP-1 cells were then analyzed. […] The inventive compound no.

[7] = test system: THP-1 cells / TNFα-activated HUVEC; assay: THP-1 cell adhesion to TNFα-activated HUVEC; format: cell-based, human; settings: 0.1 to 10 μM
Text: This example illustrates inhibitive activity of inventive compound no. 2525 on THP-1 cell adhesion to TNFα-activated HUVEC. In an investigative assay, representative of the protocol employed in Example 23, HUVEC were stimulated with TNF α instead of IL-1β. As shown by results reported in FIG. 15, non-stimulated background adherence was approximately 1000 relative units, increasing to approximately 3000 under TNF stimulation.

[8] = test system: ICAM in HUVEC cells; assay: cell surface expression of ICAM in HUVEC; format: cell-based; settings: human TNF-α 20 ng/ml, 20 hours
Experimental: 2525 to inhibit cell surface expression of ICAM in HUVEC cells. The cells were stimulated with human TNF-α (20 ng/ml) for 20 hours and then stained for immunofluorescence using a monoclonal antibody recognizing ICAM, followed by a goat anti-mouse antibody conjugated to phycoerythrin. The cells were analyzed for antibody binding using flow cytometry. FIG. 16 reports % surface expression, determined by analysis of mean fluorescence intensity of cells analyzed by flow cytometry, for compound no. 2525, at concentration shown. As reported, compound no.

CC(O)CCCCn1c(=O)c2c(ncn2C)n(C)c1=O (centres unmarked) [M1, 1-(5-hydroxyhexyl)-3,7-dimethylxanthine]
stimulation of chemotaxis in polymorphonuclear leukocytes [1]: stimulate chemotaxis in polymorphonuclear leukocytes | cerebral blood flow [2]: increasing cerebral blood flow

CC(CCCCCCCCCn1c(=O)c2c(ncn2C)n(C)c1=O)=NO [compound 2514]
proliferative response of lymphocytes in mixed lymphocyte reaction [3]: showed activity in this immune modulating activity assay procedure | inhibition of thymocyte proliferation, ConA + IL-2 [4]: inhibit thymocyte proliferation and activation

CC(CCCCCCCCCCn1c(=O)c2c(ncn2C)n(C)c1=O)=NO [compound 2525]
inhibition of VCAM surface expression [5]: able to inhibit surface expression of VCAM | inhibition of THP-1 adhesion to IL-1β-activated HUVEC [6]: significantly inhibited THP-1 adhesion | inhibition of THP-1 adhesion to TNFα-activated HUVEC [7]: significantly inhibited THP-1 adhesion | inhibition of ICAM surface expression [8]: inhibited ICAM surface expression
